One series has as its system Jurkat cells. Kind of series: Cell viability (Annexin V-APC, flow cytometry) in Jurkat cells. The series is classed as cell-based. The conditions noted are these: 24 h. On the procedure:
(§1) A phosphatidylserine exposure was used to determine cell viability. Cells were washed with PBS, pelleted, and then incubated with annexin binding buffer containing Annexin V-APC (Life Technologies) for 15 min in the dark. Then, samples were analyzed by flow cytometry using FACSCanto II and FACSDiva (BD Biosciences, Franklin Lakes, NJ, USA). Data represents the percentage of non - apoptotic cells (Ann -APC-).
(§2) The cytotoxicity of a selection of the synthesized compounds was assessed after 24 hours of treatment in two human cell lines, Jurkat and HEK293T, coming from either tumoral T-cell lymphocytes or non-tumoral embryonic kidney fibroblasts, respectively. […]
(§3) the pro-apoptotic activity was not significant below 10 µM for most compounds in both cell lines, except for 5i, 5k and 5l in both cell lines, as well as 9a in Jurkat and 5e HEK293T cells (Figure S35A-B).
(§4) Moreover, the cytotoxicity of compounds 4d, 5b, 5h, 8, 10, and 12d at a higher concentration (100 µM) was assessed in both cell lines, Jurkat and HEK293T. The cytotoxicity of compounds 5b, 5h, and 12d could not be properly tested as the compounds were not soluble […]
(§5) effects observed for compound 4d in Jurkat cells and compound 8 in HEK293T cells (Figure S35C).
(§6) Figure S35. A) Jurkat and B) HEK293T cells were treated with 1 and 10 µM doses of the corresponding compound for 24 hours. Indicated doses of fluorizoline were used as a positive control of cell death. C) Jurkat and HEK293T cells were treated with 100 µM of the corresponding compound for 24 hours. Viability was measured by flow cytometry, and it is expressed as the mean ± SEM (n = 3) of the percentage of non -apoptotic cells (Ann-APC-). * p < 0.05, ** p < 0.01 *** p < […]
(§7) (1 picture or pasted object on this page, not shown here)
For orientation: Flow cytometry measures light scatter and fluorescence of single cells or particles in a stream.

The next series deals with HEK293T cells. Briefly: Cell viability (Annexin V-APC, flow cytometry) in HEK293T cells. The conditions noted are these: 24 h. The series is classed as cell-based. On the procedure: as §1, §2, §3, §4, §5, §6, §7
For series [1], the target named is T1, aryl hydrocarbon receptor (AhR) (Homo sapiens, UniProt P35869).
T1 construct: AhR-dependent reporter gene activity was determined in human HepG2 cells stably transfected with an XRE; endogenous in cells; host or cells: XRE-HepG2 (human HepG2 hepatoma cells stably carrying an XRE-luciferase plasmid)
T1 sequence (P35869 11-848): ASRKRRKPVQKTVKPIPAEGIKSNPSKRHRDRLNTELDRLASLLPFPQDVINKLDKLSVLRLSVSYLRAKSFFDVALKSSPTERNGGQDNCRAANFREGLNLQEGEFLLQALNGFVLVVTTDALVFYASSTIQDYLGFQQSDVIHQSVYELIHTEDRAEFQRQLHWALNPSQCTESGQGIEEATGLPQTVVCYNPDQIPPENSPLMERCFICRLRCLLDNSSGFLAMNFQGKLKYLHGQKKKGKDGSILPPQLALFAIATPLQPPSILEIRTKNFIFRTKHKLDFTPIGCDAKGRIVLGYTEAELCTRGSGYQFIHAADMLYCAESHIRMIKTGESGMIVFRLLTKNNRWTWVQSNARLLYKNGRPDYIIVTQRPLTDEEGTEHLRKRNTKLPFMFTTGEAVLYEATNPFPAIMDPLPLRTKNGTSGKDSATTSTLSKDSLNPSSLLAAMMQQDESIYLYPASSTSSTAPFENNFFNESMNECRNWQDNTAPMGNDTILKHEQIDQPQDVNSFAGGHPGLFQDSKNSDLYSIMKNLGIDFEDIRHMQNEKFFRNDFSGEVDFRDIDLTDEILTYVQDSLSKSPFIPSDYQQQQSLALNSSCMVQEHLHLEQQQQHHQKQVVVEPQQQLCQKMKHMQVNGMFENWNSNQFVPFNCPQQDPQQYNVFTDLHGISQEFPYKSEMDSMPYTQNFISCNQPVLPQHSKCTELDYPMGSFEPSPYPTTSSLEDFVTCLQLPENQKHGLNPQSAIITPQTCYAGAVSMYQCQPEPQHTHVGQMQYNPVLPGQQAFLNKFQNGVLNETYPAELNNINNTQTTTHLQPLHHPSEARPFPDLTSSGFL
Briefly: AhR/XRE-dependent luciferase reporter gene assay in XRE-HepG2 cells. It is filed as cell-based. The note with it: XRE-HepG2 cells, 8 h; unit as in the supplements; read-out: AhR/XRE-dependent luciferase activity EC50. (In general: Reporter assays use an easily measured gene product as a stand-in for the process of interest.)

For the next series, the target named is T2, AhR (Homo sapiens, UniProt P35869).
T2 construct: Degradation of endogenous AhR was further confirmed via Western blotting and global proteomics measurements in cells treated with 12b; host or cells: MCF7
T2 sequence (P35869 11-848): T1 sequence (P35869 11-848)
Kind of series: Western blot of AhR in MCF7 cells. The series is classed as cell-based. The note with it: 10 µM, 5 h. The method, then:
Figure S30. Agonists induce degradation of AhR.
12b, 12c, and 12d at a concentration of 10 µM for 5h. The numbers on the Blot indicate the signal intensities of the bands relative to the Tubulin bands, normalized to DMSO treatment as quantified with Empiria Studio. […]
Cell culture and treatment […]
MCF7 cells were purchased from ATCC and grown in DMEM with 10% FCS and 1% penicillin/ streptomycin. […]
All cells were cultivated at 37 °C in a humidified atmosphere containing 5% CO 2.
Tapinarof (MedChemExpress, Monmouth Junction, NJ), benzo[a]pyrene (Sigma-Aldrich, Taufkirchen, Germany), TCDD (Amchro, Hattersheim am Main, Germany) and all compounds synthesized in this study were dissolved in dimethyl sulfoxide (DMSO; Roth). […]
Quantitative real-time PCR […]
• CYP1A1: […] (forward (5'>3')); […] (reverse (5'>3')).
• CYP1B1: […] (forward (5'>3')); […] (reverse (5'>3')).
• CCL26: […] (forward (5'>3')); […] (reverse (5'>3')).
• IL-19: […] (forward (5'>3')); […] (reverse (5'>3')).
• CXCL1: […] (forward (5'>3')); […] (reverse (5'>3')).
• β-actin: […] (forward (5'>3')); […] (reverse (5'>3')). […]
The assay was carried out as described earlier. Luciferase activity was normalized to protein content.
SDS-PAGE/Western blot analysis
Cells were lysed in RIPA buffer on ice and subsequently centrifuged for 15 min at 4 °C at maximum speed. Protein samples were separated by 10% and 12% SDS -polyacrylamide gel electrophoresis and blotted onto PVDF (GE Healthcare, Freiburg, Germany) or Nitrocellulose (BioRad #17 04158) membranes. Blots were blocked with 5% skim milk or bovine serum albumin in TBS -Tween-20 (0.1%) for or Intercept® (TBS) Blocking Buffer (LI -COR Biosciences) 1 h at room temperature and subsequently incubated overnight at 4 °C with primary antibodies. Blots were washed and then incubated for 1 h with a 1:5000 dilution of HRP -conjugated secondary antibodies in 5% bovine serum albumin in TBS -Tween-20 (0.1%) or anti-Mouse (Licor, IRDye® 680RD Goat anti -Mouse IgG, 1:10k dilution) or anti-Rabbit secondary antibody (Licor, IRDye® Goat anti -Rabbit IgG, 1:10k dilution) at room temperature. Bands were visualized using WesternBright ECL HRP substrate (Advansta, San Jose, CA) and a C -DiGit Western Blot Scanner (LI -COR Biotechnology, Lincoln, NE) or a Licor Odyssey CLx imager. Primary antibodies used in this study are as follows. AhR (Cat.No. 83200; Cell Signaling Technology, Leiden, The Netherlands). AIP (Cat.No. sc-59730; Santa Cruz Biotechnology, Dallas, TX). Cul4B (Cat.No. abx004735; Abbexa, Houston, TX). GAPDH (Cat.No. 2118; Cell Signaling Technology). Vinculin (Cat.No. 13901, Cell Signaling Technology). α - Tubulin (Abcam, ab7291, 1:10k dilution).
HaCaT-EV and HaCaT-shAhR cells were treated with either vehicle (DMSO) or 10 µM 12d for 0.5 h and 1 h. […]

The subject of a further series is HaCaT cells. Kind of series: UVA phototoxicity, caspase 3 activity in HaCaT cells. The series is classed as cell-based, human. The note with it: for UVA radiation-induced caspase activity (phototoxicity): HaCaT, 1 h, UVA 5 J/cm2. The method, then: Irradiation with UVA and caspase 3 activity measurement […]
culture media was exchanged with PBS and the cells were sham or UVA (5 J/cm2) irradiated using the BS-02 irradiation chamber (Opsytec Dr. Gröbel, Ettlingen Germany). Media was added to the cells and after 4 h incubation, caspase 3 activity was measured as described previously.[33] Protein quantification was done with the Bio-Rad DC protein assay kit (Bio-Rad Laboratories, Hercules, CA) according to the manufacturer protocol.
We compared the phototoxic potential of five of our test compounds (8, 10, 5b, 5h, 4b) as well as the FDA-approved AhR activator […]
induced caspase activity at a concentration of 100 nM (Figure S36A). At a 10-fold higher concentration (1 µM) two of the test compounds […]
Figure S36. […] For statistical analysis a two-way ANOVA (Tukey post-hoc) was performed and data are shown as mean ± SEM. (*, p ≤ 0.05). […]

A short description of series [2]: Solubility in the growing media during cytotoxicity testing. The conditions noted are these: concentration of 100 µM. It is filed as physicochemical. On the procedure:
as §1, §2, §3, §4, §5, §6, §7

Entries after “also recorded” stand apart in the source; their conditions may differ.

`Cn1c2ccccc2c2c(C3=C(O)CC(C)(C)CC3=O)c3c(cc21)c1ccccc1n3C` [4d]: the “cytotoxicity / pro-apoptotic activity at 100 µM” value with Jurkat cells was “slight cytotoxic effects”; in the series on HEK293T cells, “minimal pro-apoptotic activity”. The EC50 in series [1] came to 1.31 µM.

In the case of `COc1ccc2[nH]cc(-c3c4[nH]c5ccccc5c4cc4[nH]c5ccccc5c34)c2c1` [5a], the AhR receptor proteolysis result at AhR is listed as “induced receptor proteolysis”. Also, the EC50 in series [1] is 0.6 µM.

Turning to `Cn1cc(-c2c3[nH]c4ccccc4c3cc3[nH]c4ccccc4c23)c2ccccc21` [5d], the AhR receptor proteolysis result on AhR is on record as “induced receptor proteolysis”. In addition, in series [1], the EC50 was 0.38 µM.

Take `Cc1[nH]c2ccccc2c1-c1c2[nH]c3ccc(F)cc3c2cc2[nH]c3ccc(F)cc3c12` [5k]: at AhR, the AhR receptor proteolysis result is listed as “induced receptor proteolysis”. In addition, in series [1], the EC50 came out at 2.74 µM.

On to `CC(=O)Nc1ccccc1C(=O)c1c2[nH]c3ccccc3c2cc2[nH]c3ccccc3c12` [compound 10], for which the “overlap between effective and toxic concentrations” value in the series on HaCaT cells was “minimal overlap”. Besides, the figures for the “UVA radiation-induced caspase activity (phototoxicity)” value with HaCaT cells (100 nM) and in the series with HaCaT cells (1 µM) were “neither tapinarof nor our 6-ICZ compounds enhanced” and “did not show any signs of phototoxicity; also recorded: no phototoxicity”, respectively. For the same compound, the “solubility in the growing media” value in series [2] is reported as “slight turbidity”. The “cytotoxicity / pro-apoptotic activity at 100 µM” value in the series on Jurkat cells and with HEK293T cells was “minimal pro-apoptotic activity” in each case. Also, in series [1], the EC50 came out at 0.26 µM.

The values are drawn from paper PMC12022909, “A Multicomponent Reaction-Based Platform Opens New Avenues in Aryl Hydrocarbon Receptor Modulation” (ACS Central Science, 2025).
